{"source": "a melting point compilation (Tetko et al.; mined from patent text by program, amines drawn as free bases though some values may be those of a salt)"}
{"units": {"melting point": "°C"}}
{"smiles": "O=C(Nc1cccc2c1C(=O)c1c-2n[nH]c1-c1ccc(C(=O)N2CCN(CCO)CC2)s1)NN1CCOCC1", "melting point": "186 to 187"}
{"smiles": "CC(C(=O)O)c1cccc(OCCC(=O)O)c1", "note": "(stereo not given)", "melting point": "144 to 146"}
{"smiles": "CCNc1ncc2cc(-c3c(Cl)cccc3Cl)c(=O)n(C)c2n1", "melting point": "180 to 182"}
{"smiles": "O=C(O)C(Cc1ccccc1)Oc1c(Br)cc(-c2c(Br)ccc3sc4ccccc4c23)cc1Br", "note": "(stereo not given)", "melting point": "98 to 100"}
{"smiles": "CC(C)(C)OC(=O)N1CC(c2ccc(N=C(c3ccccc3)c3ccccc3)nc2)C1", "melting point": "104 to 105"}
{"smiles": "NC(=O)N1C(=O)C(=C(OC(=O)C=CC(=O)OCCCCc2ccccc2)c2cccs2)c2cc(F)c(Cl)cc21", "melting point": "159 to 161"}
{"smiles": "OCc1nn(-c2ccc(Br)cc2)c2c1CCCC2", "melting point": "126 to 127"}
{"smiles": "Cc1csc(CNC(=O)c2sc(N3CCN(CC4CC4(F)F)C3=O)nc2C)n1", "note": "(stereo not given)", "melting point": "157 to 159"}
{"smiles": "CCOc1ccc2[nH]c(=O)n(N3CCOCC3)c2c1", "melting point": 155}
{"smiles": "CCOC(=O)CC(=O)c1cc(I)ccc1F", "melting point": "54 to 56"}
{"smiles": "COCCCCNC(=O)C(c1ccccc1)c1ccccc1", "melting point": "75.5 to 76.8"}
{"smiles": "O=C(CCCC1CCN(Cc2cccc(O)c2)CC1)c1ccc2c(c1)CCN(Cc1ccccc1)CC2", "melting point": "88 to 94"}
{"smiles": "CC(C)(C)OC(=O)CC(=O)c1ccc(C#N)cc1", "melting point": "82 to 83"}
{"smiles": "CCCCCCCCCCCCCC(=O)c1cc(O)c(C)cc1O", "melting point": 83}
{"smiles": "O=C(Nc1ccc(C(=O)O)cc1)NN1CC=CCC1", "melting point": "> 240"}
{"smiles": "CC1Cc2cc(Br)cc(S(N)(=O)=O)c2O1", "note": "(stereo not given)", "melting point": "167 to 169"}
{"smiles": "Nc1ncc(-c2cnc3ccc(-c4ccc(OCC5(CNC(=O)C6CC6)COC5)cc4)nn23)cc1C(F)(F)F", "melting point": "223 to 225"}
{"smiles": "O=C1NC(=O)C(=Cc2ccc(OCCNc3ncccn3)cc2)S1", "melting point": 234}
{"smiles": "CCOCc1nc2cnc3ccccc3c2n1CCCCC(N)=O", "melting point": "157 to 158"}
{"smiles": "CNS(=O)(=O)c1ccc(OC)c(C(=O)NCC2CCCN2CC2=CCCCC2)c1", "note": "(stereo not given)", "melting point": "140 to 141"}
{"smiles": "CCS(=O)(=O)ON=C(C#N)c1ccc(OC)cc1", "melting point": 102}
{"smiles": "C[C@@H]1NC(=O)OC1(C)C", "melting point": 60}
{"smiles": "CCc1[nH]n(C2CCCC2)c2nc(-c3ccc(OC)c(OCCN4CCOCC4)c3)nc(=O)c1-2", "melting point": "205 to 206"}
{"smiles": "CCC1c2cccn2-c2ccc(C(F)(F)F)cc2N1S(=O)(=O)c1ccc(OC)c(C)c1", "note": "(stereo not given)", "melting point": "151 to 154"}
{"smiles": "CCCCc1nn(CC#N)c(=O)n1Cc1ccc(-c2ccccc2-c2nnn[nH]2)cc1", "melting point": "86 to 88"}
{"smiles": "CCc1nc(NC(=O)C2=C(O)c3ccc4ccccc4c3S(=O)(=O)N2)sc1C", "melting point": "268 to 270"}
{"smiles": "CN1CCC2c3[nH]c4ccccc4c3CCN2C1", "note": "(stereo not given)", "melting point": 168}
{"smiles": "O=C(Cc1ccc(CCNS(=O)(=O)c2ccc(Cl)cc2)cc1)Nc1nnn[nH]1", "melting point": "168 to 170"}
{"smiles": "CC(C)(C)c1cc(CN(c2cccnc2)S(=O)(=O)c2ccc(F)cc2)cc(C(C)(C)C)c1O", "melting point": "137 to 138"}
{"smiles": "O=[N+]([O-])c1cc2nc(Cl)c(Cl)nc2cc1Sc1ncc[nH]1", "melting point": "> 300"}
{"smiles": "O=C(NCc1ccc(Cl)c(Cl)c1)c1ccc2n1Cc1ccccc1N(C(=O)CSc1ccc(Br)cc1)C2", "melting point": 150}
{"smiles": "O=C(O)Cc1c(Cl)nc(-c2ccccc2)n1Cc1cc([N+](=O)[O-])ccc1Cl", "melting point": "200 to 205"}
{"smiles": "CC(=O)OC1CSC(Oc2cccc(-c3ncccc3Cl)c2)C(OC(C)=O)C1OC(C)=O", "note": "(stereo not given)", "melting point": 148}
{"smiles": "CC(=O)OC1CC2CCC3C(CCC4(C)C(C(C)=O)CCC34)C2(C)CC1Br", "note": "(stereo not given)", "melting point": "142 to 146"}
{"smiles": "CNC(=O)Oc1c(C)cc(C)c2c1CC(C)C2(C)C", "note": "(stereo not given)", "melting point": "130 to 131"}
{"smiles": "O=C(O)Cc1cccc(Oc2cccc(Cl)c2Cl)c1[N+](=O)[O-]", "melting point": "178 to 183"}
{"smiles": "O=C1Nc2ccc(Cl)cc2[C@@](/C=C/C2CC2)(C(F)(F)F)O[C@H]1C1CC1", "note": "(relative stereo)", "melting point": "143 to 144"}
{"smiles": "CCCc1ncc(/C=C2\\C(=O)N(CC(=O)OC)c3cccc(C)c32)n1Cc1ccc(C(=O)OC)cc1", "melting point": "228 to 230"}
{"smiles": "Cc1ccc(S(=O)(=O)NCCCn2c(CCO)nc3c(N)nc4ccccc4c32)cc1", "melting point": "231 to 232"}
{"smiles": "CC(C)c1cnc(NC(=O)Cc2csc(N)n2)s1", "melting point": "201 to 203"}
{"smiles": "COc1cc(OC)nc(NC(=O)NS(=O)(=O)Cc2ccccc2S(C)(=O)=O)n1", "melting point": "180 to 182"}
{"smiles": "Cc1ncc([N+](=O)[O-])n1-c1nccc2[nH]c(=O)ccc12", "melting point": "> 300"}
{"smiles": "ClCc1cn2cc(Cl)cc(Cl)c2n1", "melting point": "162 to 163"}
{"smiles": "COc1ccc(C(C)C)c(NC(=O)CN2CCN(CCCSc3nc4ccccc4o3)CC2)c1C(C)C", "melting point": "105 to 107"}
{"smiles": "CCSc1cccc2c1C(=O)c1cccc(SCC)c1C2=O", "melting point": "235 to 236"}
{"smiles": "ON=C1c2sccc2-n2cccc21", "melting point": 172}
{"smiles": "N=C(N)NC[C@H]1CC[C@H](C(=O)O)CC1", "melting point": "206 to 208"}
{"smiles": "O=[N+]([O-])c1cccc(CBr)c1CBr", "melting point": "68 to 70"}
{"smiles": "N#Cc1ccc2c(c1-c1c(C#N)ccc3c1OCO3)OCO2", "melting point": "213 to 215"}
{"smiles": "CCOC(=O)c1nn(-c2ccc(C)cc2)nc1C", "melting point": "47 to 48"}
{"smiles": "CCCc1c(OCCCOc2ccc3c(c2CCC)OC(CCC(=O)O)CC3=O)ccc(C(C)=O)c1O", "note": "(stereo not given)", "melting point": "149 to 150"}
{"smiles": "O=c1c(-c2cccc(F)c2)c(CNc2ncnc3[nH]cnc23)oc2ccc(F)cc12", "melting point": "229 to 232"}
{"smiles": "O=C1c2cc(Br)ccc2COc2ccccc21", "melting point": "104 to 106"}
{"smiles": "CC(C)[C@@H](CNC(=O)/C=C/c1ccccc1)NC(=O)OC(C)(C)C", "melting point": "149 to 151"}
{"smiles": "CCOc1cc(C)ccc1C1CCN(CCCCNC(=O)c2ccc(-c3ccc(C(F)(F)F)cc3)cc2)CC1", "melting point": 191}
{"smiles": "N#CC(N)=C(C#N)N=Cc1c(Cl)cc(C(F)(F)F)cc1Cl", "melting point": "218 to 219"}
{"smiles": "Cc1ccc(Oc2ccc3c4c(cccc24)C2=NC(=O)C(C#N)=C23)cc1", "melting point": "232 to 233"}
{"smiles": "Cc1ccc(CCc2nc3cc(-c4ccc(S(=O)(=O)N(C)C)cc4)cnc3[nH]2)nc1N", "melting point": 157}
{"smiles": "C#CCN1CCCNC1=C[N+](=O)[O-]", "melting point": "157 to 158"}
{"smiles": "NC(=O)C(CCc1cc(Cl)ccc1N1CCCCC1)c1ccc(C(=O)O)cc1", "note": "(stereo not given)", "melting point": "192 to 195"}
{"smiles": "COc1ccc(S(=O)(=O)N(CC(N)=O)c2ccc(Cl)cc2Cc2ccccc2C(F)(F)F)cc1OC", "melting point": 133}
{"smiles": "OC(Cn1cncn1)(Cn1cnc(C=Cc2ccc(C(F)(F)F)cc2)n1)c1ccc(OC(F)(F)F)cc1", "note": "(stereo not given)", "melting point": "193 to 195"}
{"smiles": "O=C(CS(=O)Cc1cccnc1)C12CC3CC(CC(C3)C1)C2", "note": "(stereo not given)", "melting point": "116 to 119"}
{"smiles": "Cc1cc(S(C)(=O)=O)c(S(C)(=O)=O)cc1C(=O)O", "melting point": "234 to 235"}
{"smiles": "CCCCc1csc2ccc3[nH]c4c(c3c12)CN(C(C)C)CC4", "melting point": "157 to 158"}
{"smiles": "O=C1C2CCCN2S(=O)(=O)N1CSc1ccccc1", "note": "(stereo not given)", "melting point": "90.5 to 91.5"}
{"smiles": "Cc1c(-c2ccc(O)cc2)n(Cc2ccc(OCCN(C(C)C)C(C)C)cc2)c2ccc(O)cc12", "melting point": "96 to 102"}
{"smiles": "CC(C)(C)Sc1ssc(=S)c1Cl", "melting point": 45}
{"smiles": "C=CCn1c(=O)c(C(=O)OCC)c(N)c2cccnc21", "melting point": "161 to 164"}
{"smiles": "COc1ccc(Cc2ccc(-c3cnn4c(O)ncnc34)cc2)cc1", "melting point": "296 to 298"}
